The values below are quoted from earlier work in patent publication US20030153514A1, “Remedies for cancer” (priority 2000, published 2003).

The data set concerns NKT cells (Vα24Vβ11). The settings on record: cancer-bearing mice.

`CCCCCCCCCCCCCCCCCCCCCCCCCC(=O)N[C@@H](CO[C@H]1O[C@H](CO)[C@H](O)[C@H](O)[C@H]1O)[C@H](O)[C@H](O)CCCCCCCCCCCCCC` [α-galactosylceramide]: the NKT cells entry is on record as “activated”, the disappearance of cancer entry is on record as “not observed” and the metastasis entry is recorded as “suppressed”.
